In publication PMC12523838, “Inhibition of Xanthine Oxidase by Four Phenolic Acids: Kinetic, Spectroscopic, Molecular Simulation, and Cellular Insights” (Foods, 2025):
Where “and” joins values, the source holds several entries; their conditions need not be identical. Equal entries are not always repeated. Entries after “also recorded” stand apart in the source; their conditions may differ. Where two headings read alike, the source gives them in different places.

Legend:
[1] = molecular target: T1, XOD (xanthine oxidase) (Bos taurus, UniProt P80457); test: Kinetic mechanisms of XOD inhibition (Lineweaver-Burk); assay type: biochemical, bovine; details: for Inhibition types: Lineweaver-Burk plots; for Kis (inhibition constant for the XOD-substrate complex): mixed inhibition model; for Ki: read-out: Ki (inhibition constant for XOD)
Protocol: The inhibition kinetics of XOD by FA, CA, GA, and PA were evaluated using Lineweaver–Burk plots. The inhibitor concentrations were as follows: FA (0, 2.0, 3.0, and 4.0 mM), CA (0, 1.0, 2.0, and 4.0 mM), GA (0.2, 1.0, 2.0, and 4.0 mM), and PA (1.0, 2.0, 5.0, and 10.0 mM). The substrate (xanthine) concentrations were fixed at 0.1, 0.2, 0.3, and 0.4 mM. XOD (0.05 U/mL) was used, and the initial reaction velocity (v) was calculated based on UA formation.
Lineweaver–Burk plots were established by plotting 1/v against 1/[s] for each inhibitor concentration. Four linear regressions were obtained for each inhibitor, enabling the determination of the inhibition type. […] The slope and intercept of the Lineweaver–Burk plot were plotted against inhibitor concentration [I], yielding the following equations: (3) and (4).
V denotes the reaction rate, Vmax the maximum rate, Km the Michaelis constant, Ki the inhibition constant for XOD, and Kis the inhibition constant for the XOD–substrate complex. Decreased Ki or Kis values indicate stronger inhibitory activity.

[2] = system: BRL-3a cells; test: UA levels in xanthine-treated BRL-3A cells; assay type: cell-based; details: vs model group
Protocol: UA levels were measured following the method of Liu et al.. […] After 48 h of incubation, supernatants were collected, spun at 1000× g for 5 min, then the UA level was quantified with the UA assay kit.

[3] = molecular target: T1, XOD (xanthine oxidase); test: XOD inhibitory activity in vitro (enzymatic reaction, HPLC of UA); assay type: biochemical, bovine
Protocol: The XOD inhibitory activity of the samples was assessed using an enzymatic reaction followed by HPLC analysis. Briefly, 50 μL of XOD (0.05 U/mL in 200 mM PBS, pH 7.5) was combined with either 50 μL of PBS (control) or 50 μL of the sample solution. The reaction mixture was equilibrated at 37 °C for 5 min, after which 150 μL of 0.40 mM xanthine was added. The reaction proceeded at 37 °C for 10 min and was terminated by adding 80 μL of 1.0 M HCl.
UA production was measured using an HPLC system (Agilent Technologies, Santa Clara, CA, USA) equipped with a UV detector. The reaction solution was diluted 20-fold and filtered, and 10 μL of the filtrate was injected into an Agilent Eclipse XDB-C18 column (150 × 4.6 mm, 5 μm). The mobile phase, consisting of 10% methanol and 90% 10 mM sodium phosphate buffer (pH 5.5), was delivered isocratically at 1.0 mL/min. UA was detected at 292 nm with the column maintained at 25 °C. Concentrations were calculated based on an external calibration curve. XOD inhibition was expressed as the percentage reduction of UA formation, and the IC50 value was defined as the sample concentration at which 50% inhibition was achieved.

[4] = Oxygen radical absorption capacity (ORAC)
Protocol: The ORAC analysis method was adapted from Wang et al.with adjustments. The trial was conducted in 75 mM PBS (pH 7.4). […] AAPH was freshly dissolved in PBS at 38.25 mM and maintained in an ice-water bath. […] The reaction was initiated by adding 100 μL of AAPH solution, and fluorescence intensity was recorded every minute for 100 min to generate a fluorescence decay curve (Thermo Fisher Scientific, Waltham, MA, USA). Trolox served as the reference standard, while PBS functioned as the blank. ORAC values were determined from the net area under the fluorescence decay curve and expressed as Trolox equivalents per sample [22].

[5] = Reducing power (potassium ferricyanide, absorbance at 700 nm); details: concentration at which absorbance at 700 nm reached 0.5
Protocol: The mixture was incubated at 50 °C for 20 min, after which 0.5 mL of 10% (,w/v) trichloroacetic acid solution was added. Following centrifugation at 3000 rpm for 10 min, 0.5 mL of the supernatant was transferred to a new test tube, and 0.5 mL of distilled water along with 0.1 mL of 0.1% (,w/v) ferric chloride solution were added. After 10 min of incubation, absorbance was measured at 700 nm. Higher absorbance values correspond to stronger reducing activity. The IC50 value was defined as the concentration at which the absorbance reached 0.5.

[6] = DPPH radical scavenging activity
Protocol: The DPPH• scavenging capacity was evaluated following the method of Nakbi et al.. […] The mixture was vortexed and incubated at room temperature for 30 min. Absorbance was then measured at 517 nm and recorded as Ai. For the control experiment, 10 μL of anhydrous ethanol replaced the sample soluition, while all other steps were identical, and the absorbance was recorded as Ac. To correct for background, 10 μL of sample solution was mixed with 240 μL of anhydrous ethanol alone, and the absorbance at 517 nm was recorded as A0.

[7] = molecular target: T2, XOD (Bos taurus, UniProt P80457); test: Fluorescence quenching of XOD (Stern-Volmer); assay type: binding, bovine; details: for Kq (quenching rate constant) / n (number of binding sites): 298 K
T2 construct: XOD (7.2 units/mL, derived from bovine milk); purchased Sigma-Aldrich (St. Louis, MO, USA); host or cells: bovine milk
Protocol: In brief, 100 µL of XOD (0.05 U/mL in 200 mM PBS, pH 7.5) was combined with 100 µL of each phenolic acid at final concentrations of 0, 50, 100, 200, 300, 400, and 500 μM. The mixtures were incubated at 25 °C for 10 min, and fluorescence emission spectra were recorded using a microplate reader (Thermo Fisher Scientific, Waltham, MA, USA) with an excitation wavelength of 280 nm and an emission collected from 310 to 500 nm. PBS was used as the blank, and background fluorescence was subtracted to ensure accuracy.
The binding mechanisms of FA, CA, GA, and PA to XOD were investigated using the fluorescence quenching method at seven different concentrations.
F0 and F denote the fluorescence intensities of XOD in the absence and presence of quenchers (FA, CA, GA, and PA), respectively. The quenching constant (Ksv) is, obtained from the linear fitting of F0/F against the quencher concentration [Q]. The quenching rate constant is expressed as Kq, while τ0 represents the average lifetime of the fluorophore in the absence of a quencher (typically 10^−9 s). The effective quenching constant of the accessible fluorophore is designated as Ka, and fa corresponds to the fraction of fluorescence accessible to quenching. The binding constant is indicated by K, and n stands for the number of binding sites.

[8] = ABTS radical scavenging activity
Protocol: The modified ABTS assay was carried out as described by Foss et al. with appropriate modifications. A 7 mM ABTS solution was mixed in equal volumes with 2.45 mM potassium persulfate and kept in the dark at room temperature for 12–16 h to generate the ABTS•^+ stock solution. […] Absorbance was recorded at 734 nm. PBS served as the blank, while Trolox was used as the standard. The results were reported as IC50 value, representing the concentration of sample required to scavenge 50% of ABTS•^+ radicals.

[9] = molecular target: T2, XOD; test: CD spectroscopy, secondary structure of XOD; set-up: species or system bovine; details: for α-helix content of XOD: XOD with phenolic acid (300 μM solution, equal volumes), XOD alone 36.70; for β-sheet content of XOD: XOD with phenolic acid, XOD alone 13.87
Protocol: CD spectroscopy was employed to determine the conformational structure of XOD in the presence of phenolic compounds. Spectra were recorded in the wavelength range of 190–250 nm using a scanning rate of 100 nm/min, with continuous nitrogen purging at room temperature. XOD was prepared at 2.0 mg/mL in PBS (200 mM, pH 7.5) and then diluted 6-fold to 0.33 mg/mL. Phenolic compounds were dissolved in PBS at 300 μM, and equal volumes of XOD and phenolic solutions were joined in equal amounts. CD spectra of the mixtures were recorded with the PBS as the background, and secondary structure content of XOD was analyzed employing the SELCON3 algorithm on the DichroWeb server (http://dichroweb.cryst.bbk.ac.uk/html/home.shtml).
The CONTIN program was used to determine the secondary structure composition of XOD (Figure 3B).

[10] = XOD 0.05 U/mL, 0.40 mM xanthine, 37 °C, pH 7.5, read-out: IC50 of XOD inhibitory activity

T1 sequence (P80457 whole entry): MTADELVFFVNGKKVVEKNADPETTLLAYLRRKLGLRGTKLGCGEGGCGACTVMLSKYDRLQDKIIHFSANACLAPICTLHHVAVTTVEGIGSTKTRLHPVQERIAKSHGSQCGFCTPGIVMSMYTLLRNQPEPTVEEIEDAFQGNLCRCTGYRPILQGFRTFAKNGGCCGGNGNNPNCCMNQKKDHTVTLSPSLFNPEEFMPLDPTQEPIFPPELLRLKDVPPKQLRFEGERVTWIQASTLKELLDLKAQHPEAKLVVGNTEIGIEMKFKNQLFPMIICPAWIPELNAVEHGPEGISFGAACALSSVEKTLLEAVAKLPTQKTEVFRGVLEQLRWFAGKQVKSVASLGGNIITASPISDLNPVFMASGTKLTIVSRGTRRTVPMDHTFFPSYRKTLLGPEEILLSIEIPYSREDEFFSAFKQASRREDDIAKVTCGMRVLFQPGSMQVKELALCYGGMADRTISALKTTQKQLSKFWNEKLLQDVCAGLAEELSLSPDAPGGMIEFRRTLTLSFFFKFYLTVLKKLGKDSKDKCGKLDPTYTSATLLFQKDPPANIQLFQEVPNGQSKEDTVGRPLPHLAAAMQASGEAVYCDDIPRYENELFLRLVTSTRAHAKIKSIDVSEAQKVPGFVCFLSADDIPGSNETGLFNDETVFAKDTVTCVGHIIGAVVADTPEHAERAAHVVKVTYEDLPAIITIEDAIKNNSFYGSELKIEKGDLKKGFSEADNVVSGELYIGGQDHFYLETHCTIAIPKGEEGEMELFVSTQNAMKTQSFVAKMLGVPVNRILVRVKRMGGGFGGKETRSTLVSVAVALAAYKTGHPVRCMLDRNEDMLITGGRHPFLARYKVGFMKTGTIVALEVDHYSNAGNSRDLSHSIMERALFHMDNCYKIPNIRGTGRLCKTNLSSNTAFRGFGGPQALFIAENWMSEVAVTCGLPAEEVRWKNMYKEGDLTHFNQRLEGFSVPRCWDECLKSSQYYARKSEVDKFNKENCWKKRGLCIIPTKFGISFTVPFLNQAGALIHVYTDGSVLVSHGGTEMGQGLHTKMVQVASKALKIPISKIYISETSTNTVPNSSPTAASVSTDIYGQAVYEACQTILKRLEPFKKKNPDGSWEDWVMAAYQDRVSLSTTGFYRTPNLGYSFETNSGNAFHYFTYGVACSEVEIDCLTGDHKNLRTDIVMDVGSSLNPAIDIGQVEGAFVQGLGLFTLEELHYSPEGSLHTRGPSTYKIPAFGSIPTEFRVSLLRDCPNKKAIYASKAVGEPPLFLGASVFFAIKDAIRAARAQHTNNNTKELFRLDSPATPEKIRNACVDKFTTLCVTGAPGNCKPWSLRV
T2 sequence (P80457 whole entry): as above

Row | Structure (SMILES) | Inhibition types [1] | Vmax ([1]; inhibitor 2.0 mM) | Vmax ([1]; inhibitor 4.0 mM) | Kis (inhibition constant for the XOD-substrate complex) [1] | Ki [1] | IC50 [3, 10] | ORAC Value ([4]; Trolox equivalents) | Reducing Power [5] | IC50 [6] | Kd [7] | Kq (quenching rate constant) [7] | n (number of binding sites) [7] | IC50 [8] | α-helix content of XOD [9] | β-sheet content of XOD [9] | Vmax ([1]; inhibitor 1.0 mM) | other results
1 | COc1cc(/C=C/C(=O)O)ccc1O [Ferulic acid, ferulic acid] | Mixed inhibition | 1.39 mM/min | 0.95 mM/min | 1.78 mM | 890 µM | 2040 ± 110 µM | 7.99 ± 0.24 c mmol TE/mmol | 0.74 ± 0.05 c mM | 800 ± 30 µM | 7140 µM | 0.16 ± 0.01 1012 L*mol-1*s-1 | 0.70 ± 0.01 | 300 µM | 36.37% | 14.07% | – | Inhibition types ([1]; listed as FA): mixed inhibition with competitive dominance; Vmax ([1]; inhibitor 3.0 mM): 1.04 mM/min; UA levels ([2]; 25–100 μM, 1 mM xanthine, 48 h, p < 0.05, listed as FA): significantly reduced uric acid (UA) concentration; also recorded: significantly reduced UA levels
2 | O=C(O)c1cc(O)c(O)c(O)c1 [Gallic acid, gallic acid] | Mixed inhibition | 4.72 mM/min | 3.61 mM/min | 3.05 mM | – | – | 20.12 ± 0.74 a mmol TE/mmol | 0.20 ± 0.01 mM·days | 180 ± 10 µM | 139 µM | 0.26 ± 0.01 1012 L*mol-1*s-1 | 1.13 ± 0.00 | 20 µM | 37.33% | 13.30% | 4.83 mM/min | Inhibition types ([1]; listed as GA): mixed but predominantly non-competitive inhibition; Vmax ([1]; inhibitor 0.2 mM): 4.90 mM/min; UA levels ([2]; 25 μM, 1 mM xanthine, 48 h, listed as GA): significantly reduced UA levels; IC50 [3]: 870 ± 30 µM; inhibitory efficacy of GA relative to PA (XOD IC50) ([3]; GA vs PA): approximately 14.62 fold; ORAC Value [4]: 20.12 ± 0.74 mM; Reducing Power ([5]; listed as GA): 0.20 ± 0.01 mM
3 | O=C(O)c1ccc(O)c(O)c1 [Protocatechuic acid, protocatechuic acid] | Mixed inhibition | 0.72 mM/min | – | 17.76 mM | 3210 µM | 12700 ± 670 µM | 6.63 ± 0.09 d mmol TE/mmol | 0.12 ± 0.01 mM·days | 620 µM | 719 µM | 0.18 ± 0.01 1012 L*mol-1*s-1 | 0.98 ± 0.02 | 400 ± 20 µM | 35.77% | 14.47% | 0.79 mM/min | Inhibition types ([1]; listed as PA): mixed inhibition with competitive dominance; Vmax ([1]; inhibitor 5.0 mM): 0.69 mM/min; Vmax ([1]; inhibitor 10.0 mM): 0.68 mM/min; UA levels ([2]; 25–100 μM, 1 mM xanthine, 48 h, p < 0.05, listed as PA): significantly reduced uric acid (UA) concentration; also recorded: significantly reduced UA levels; Reducing Power ([5]; listed as PA): 0.12 ± 0.01 mM
4 | Cc1c(C)c2c(c(C)c1O)CCC(C)(C(=O)O)O2 (stereo not drawn) [Trolox, 6-Hydroxy-2,5,7,8-tetramethylchromane-2-carboxylic acid, reference compound] | – | – | – | – | – | – | – | 2.62 ± 0.20 mM and 2.62 ± 0.20 b (Trolox) mM | 680 ± 10 µM | – | – | – | 3410 ± 120 µM | – | – | – | –
5 | Oc1ncnc2[nH]ncc12 [allopurinol, reference compound] | – | – | – | – | – | – | – | – | – | – | – | – | – | – | – | – | UA levels ([2]; positive control, p < 0.05): significantly lower UA levels
6 | O=C(O)/C=C/c1ccc(O)cc1 [p-Coumaric acid, p-coumaric acid] | Mixed inhibition | 0.74 mM/min | 0.68 mM/min | 6.04 mM | 1420 µM | 7610 ± 300 µM | 9.64 ± 0.27 b mmol TE/mmol | 6.98 ± 0.13 a mM | 19400 ± 1240 µM | 99.9 ± 4.49 µM | 0.91 ± 0.01 1012 L*mol-1*s-1 | 1.01 ± 0.00 | 230 ± 10 µM | 36.20% | 14.70% | 0.79 mM/min | Inhibition types ([1]; listed as CA): mixed inhibition with competitive dominance; UA levels ([2]; 25–100 μM, 1 mM xanthine, 48 h, p < 0.05, listed as CA): significantly reduced uric acid (UA) concentration; also recorded: significantly reduced UA levels
